Data as given in patent US8673950B2, “Dihydrooxazol-2-amine derivatives” (Hoffmann-LaRoche Inc., priority 2010, dated 2014).

What was measured:
[1] = molecular target: mouse TAAR1 (Mus musculus (Mouse), UniProt Q923Y8); test: Radioligand binding assay on mouse TAAR1; settings: for Ki: mouse TAAR1, membranes of stably transfected HEK-293 cells, first value of cell mouse/rat
Experimental: (§1) Construction of TAAR Expression Plasmids and Stably Transfected Cell Lines
(§2) For the construction of expression plasmids the coding sequences of human, rat and mouse TAAR 1 were amplified from genomic DNA essentially as described by Lindemann et al.. The Expand High Fidelity PCR System (Roche Diagnostics) was used with 1.5 mM Mg^2+ and purified PCR products were cloned into pCR2.1-TOPO cloning vector (Invitrogen) following the instructions of the manufacturer. PCR products were subcloned into the pIRESneo2 vector (BD Clontech, Palo Alto, Calif.), and expression vectors were sequence verified before introduction in cell lines.
(§3) HEK293 cells (ATCC # CRL-1573) were cultured essentially as described by Lindemann et al. (2005). For the generation of stably transfected cell lines HEK293 cells were transfected with the pIRESneo2 expression plasmids containing the TAAR coding sequences (described above) with Lipofectamine 2000 (Invitrogen) according to the instructions of the manufacturer, and 24 hrs post transfection the culture medium was supplemented with 1 mg/ml G418 (Sigma, Buchs, Switzerland). After a culture period of about 10 d clones were isolated, expanded and tested for responsiveness to trace amines (all compounds purchased from Sigma) with the cAMP Biotrak Enzyme immunoassay (EIA) System (Amersham) following the non-acetylation EIA procedure provided by the manufacturer.
Radioligand Binding Assay on Mouse TAAR1
(§4) Membrane Preparation and Radioligand Binding.
(§5) HEK-293 cells stably expressing mouse TAAR1 were maintained at 37° C. and 5% CO2 in DMEM high glucose medium, containing fetal calf serum (10%, heat inactivated for 30 min at 56° C.), penicillin/streptomycin (1%), and 375 μg/ml geneticin (Gibco). Cells were released from culture flasks using trypsin/EDTA, harvested, washed twice with ice-cold PBS (without Ca^2+ and Mg^2+), pelleted at 1'000 rpm for 5 min at 4° C., frozen and stored at −80° C. Frozen pellets were suspended in 20 ml HEPES-NaOH (20 mM, pH 7.4) containing 10 mM EDTA and homogenized with a Polytron (PT 6000, Kinematica) at 14'000 rpm for 20 s. The homogenate was centrifuged at 48'000×g for 30 min at 4° C. Subsequently, the supernatant was removed and discarded, and the pellet resuspended in 20 ml HEPES-NaOH (20 mM, pH 7.4) containing 0.1 mM EDTA using the Polytron (20 s at 14'000 rpm). This procedure was repeated and the final pellet resuspended in HEPES-NaOH containing 0.1 mM EDTA and homogenized using the Polytron. Typically, aliquots of 2 ml membrane portions were stored at −80° C. With each new membrane batch the dissociation constant (Kd) was determined via a saturation curve. The TAAR1 radioligand ^3[H]-(S)-4-[(ethyl-phenyl-amino)-methyl]-4,5-dihydro-oxazol-2-ylamine (described in WO 2008/098857) was used at a concentration equal to the calculated Kd value, that was usually around 0.7 nM, resulting in the binding of approximately 0.5% of the radioligand and a specific binding representing approximately 70% of the total binding. Nonspecific binding was defined as the amount of ^3[H]-(S)-4-[(ethyl-phenyl-amino)-methyl]-4,5-dihydro-oxazol-2-ylamine bound in the presence of 10 μM unlabeled ligand. All compounds were tested at a broad range of concentrations (10 μM to 10 μM) in duplicates. […] The 96 deep well plates were incubated for 1 hr at 4° C. Incubations were terminated by rapid filtration through Unifilter-96 plates (Packard Instrument Company) and glass filters GF/C (Perkin Elmer) presoaked for 1 hr in polyethylenimine (0.3%) and washed 3 times with 1 ml of cold binding buffer. After addition of 45 μl of Microscint 40 (PerkinElmer) the Unifilter-96 plate was sealed and after 1 hr the radioactivity counted using a TopCount Microplate Scintillation Counter (Packard Instrument Company).

[2] = molecular target: rat TAAR1 (Rattus norvegicus (Rat), UniProt Q923Y9); test: Radioligand binding assay on rat TAAR1; settings: for Ki: rat TAAR1, membranes of stably transfected HEK-293 cells, second value of cell mouse/rat
Chain of rat TAAR1 (Q923Y9 whole entry): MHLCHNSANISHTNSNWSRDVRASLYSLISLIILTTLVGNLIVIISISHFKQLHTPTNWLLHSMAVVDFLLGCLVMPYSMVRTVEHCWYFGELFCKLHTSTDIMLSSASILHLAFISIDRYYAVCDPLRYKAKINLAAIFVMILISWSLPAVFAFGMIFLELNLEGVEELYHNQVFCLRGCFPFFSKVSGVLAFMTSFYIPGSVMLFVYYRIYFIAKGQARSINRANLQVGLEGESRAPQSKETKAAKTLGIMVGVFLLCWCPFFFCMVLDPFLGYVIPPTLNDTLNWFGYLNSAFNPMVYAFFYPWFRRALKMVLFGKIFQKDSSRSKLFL
Experimental: as §1, §2, §3
Radioligand Binding Assay on Rat TAAR1
as §4
as §5, with “expressing rat” for “expressing mouse”, “curve. […]” for “curve. The TAAR1 radioligand ^3[H]-(S)-4-[(ethyl-phenyl-amino)-methyl]-4,5-dihydro-oxazol-2-ylamine (described in WO 2008/098857) was used at a concentration equal to the calculated Kd value, that was usually around 0.7 nM, resulting in the binding of approximately 0.5% of the radioligand and a specific binding representing approximately 70% of the total binding.”, “(10 pM” for “(10 μM”

Chain of mouse TAAR1 (Q923Y8 whole entry): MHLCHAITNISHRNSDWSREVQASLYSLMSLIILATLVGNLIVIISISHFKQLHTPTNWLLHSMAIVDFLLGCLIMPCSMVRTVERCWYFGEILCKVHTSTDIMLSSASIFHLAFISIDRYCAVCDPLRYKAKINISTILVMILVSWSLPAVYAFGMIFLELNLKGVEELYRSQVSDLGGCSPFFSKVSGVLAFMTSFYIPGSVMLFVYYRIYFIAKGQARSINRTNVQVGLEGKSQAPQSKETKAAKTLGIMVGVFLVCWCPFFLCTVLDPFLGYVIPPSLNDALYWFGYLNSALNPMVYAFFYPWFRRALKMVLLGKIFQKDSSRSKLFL

Ki [1] [µM] | Ki [2] [µM] | Kd ([1]; mouse TAAR1 membranes, saturation curve, read-out: dissociation constant (Kd) of the radioligand) [nM] | Kd ([2]; rat TAAR1 membranes, saturation curve, read-out: dissociation constant (Kd) of the radioligand) [nM] | Structure (SMILES)
0.0024 | 0.001 | – | – | NC1=N[C@@H](CCc2ccc(Nc3nccc(C(F)(F)F)n3)cc2)CO1 [Example 40, {4-[2-((S)-2-Amino-4,5-dihydro-oxazol-4-yl)-ethyl]-phenyl}-(4-trifluoromethyl-pyrimidin-2-yl)-amine]
0.0007 | 0.0006 | – | – | CCCc1cnc(Nc2ccc(CC[C@H]3COC(N)=N3)cc2)nc1 [Example 49, {4-[2-((8)-2-Amino-4,5-dihydro-oxazol-4-yl)-ethyl]-phenyl}-(5-propyl-pyrimidin-2-yl)-amine]
0.0047 | 0.0004 | – | – | COc1ccnc(Nc2ccc(CC[C@H]3COC(N)=N3)cc2)n1 [Example 36, {4-[2-((S)-2-Amino-4,5-dihydro-oxazol-4-yl)-ethyl]-phenyl}-(4-methoxy-pyrimidin-2-yl)-amine]
0.0192 | 0.0024 | – | – | CC(=O)c1cnc(Nc2ccc(CC[C@H]3COC(N)=N3)cc2)nc1 [Example 47, 1-(2-{4-[2-((S)-2-Amino-4,5-dihydro-oxazol-4-yl)-ethyl]phenylamino}-pyrimidin-5-yl)-ethanone]
0.0306 | 0.0035 | – | – | Cc1ccc(Nc2ccc(CC[C@H]3COC(N)=N3)cc2)nc1 [Example 29, {4-[2-((8)-2-Amino-4,5-dihydro-oxazol-4-yl)-ethyl]-phenyl}-(5-methyl-pyridin-2-yl)-amine]
0.0003 | 0.0002 | – | – | NC1=N[C@@H](CCc2ccc(Nc3cc(C(F)(F)F)ccn3)cc2)CO1 [Example 23, {4-[2-((S)-2-Amino-4,5-dihydro-oxazol-4-yl)-ethyl]-phenyl}-(4-trifluoromethyl-pyridin-2-yl)-amine]
0.02 | 0.0028 | – | – | NC1=N[C@@H](CCc2ccc(Nc3ncc(OCC(F)(F)F)cn3)cc2)CO1 [Example 73, (S)-4-(4-(5-(2,2,2-Trifluoroethoxy)pyrimidin-2-ylamino)phenethyl)-4,5-dihydrooxazol-2-amine]
0.0128 | 0.0043 | – | – | N#Cc1cnc(Nc2ccc(CC[C@H]3COC(N)=N3)cc2)cn1 [Example 39, 5-{4-[2-((8)-2-Amino-4,5-dihydro-oxazol-4-yl)-ethyl]-phenylamino}-pyrazine-2-carbonitrile]
0.0019 | 0.0039 | – | – | NC1=N[C@@H](CCc2ccc(Nc3ncc(C(F)(F)F)cn3)cc2)CO1 [Example 56, (S)-4-(4-(5-(Trifluoromethyl)pyrimidin-2-ylamino)phenethyl)-4,5-dihydrooxazol-2-amine]
0.0022 | 0.0002 | – | – | NC1=N[C@@H](CCc2ccc(Nc3ccc(F)cn3)cc2)CO1 [Example 3, (S)-4-(4-(5-Fluoropyridin-2-ylamino)phenethyl)-4,5-dihydrooxazol-2-amine]

The next lines start with the compound.

Structure (SMILES) | Ki [1] [µM] | Ki [2] [µM] | Kd ([1]; mouse TAAR1 membranes, saturation curve, read-out: dissociation constant (Kd) of the radioligand) [nM] | Kd ([2]; rat TAAR1 membranes, saturation curve, read-out: dissociation constant (Kd) of the radioligand) [nM]
NC1=N[C@@H](CCc2ccc(Nc3cc(Cl)ncn3)cc2)CO1 [Example 32, {4-[2-((S)-2-Amino-4,5-dihydro-oxazol-4-yl)-ethyl]-phenyl}-(6-chloro-pyrimidin-4-yl)-amine] | 0.0019 | 0.0008 | – | –
COc1ccc(Nc2ccc(CC[C@H]3COC(N)=N3)cc2)cc1 [Example 9, (S)-4-{2-[4-(4-Methoxy-phenylamino)-phenyl]-ethyl}-4,5-dihydro-oxazol-2-ylamine] | 0.0032 | 0.0002 | – | –
CC(C)c1cnc(Nc2ccc(CC[C@H]3COC(N)=N3)cc2)nc1 [Example 61, (S)-4-(4-(5-Isopropylpyrimidin-2-ylamino)phenethyl)-4,5-dihydrooxazol-2-amine] | 0.0007 | 0.0002 | – | –
COc1cc(Nc2ccc(CC[C@H]3COC(N)=N3)cc2)ncn1 [Example 33, {4-[2-((S)-2-Amino-4,5-dihydro-oxazol-4-yl)-ethyl]-phenyl}-(6-methoxy-pyrimidin-4-yl)-amine] | 0.0096 | 0.0023 | – | –
CCN(C[C@H]1COC(N)=N1)c1ccccc1 [^3[H]-(S)-4-[(ethyl-phenyl-amino)-methyl]-4,5-dihydro-oxazol-2-ylamine, reference compound] | – | – | ~0.7 | ~2.3
CCC(=O)c1cnc(Nc2ccc(CC[C@H]3COC(N)=N3)cc2)nc1 [Example 53, (S)-1-(2-(4-(2-(2-Amino-4,5-dihydrooxazol-4-yl)ethyl)phenylamino)pyrimidin-5-yl)propan-1-one] | 0.113 | 0.0265 | – | –
NC1=N[C@@H](CCc2ccc(Nc3cc(C(F)(F)F)cc(Cl)n3)cc2)CO1 [Example 42, {4-[2-((S)-2-Amino-4,5-dihydro-oxazol-4-yl)-ethyl]-phenyl}-(6-chloro-4-trifluoromethyl-pyridin-2-yl)-amine] | 0.0008 | 0.0016 | – | –
NC1=N[C@@H](CCc2ccc(N[C@@H](c3ccc(Cl)cc3)C(F)(F)F)cc2)CO1 [Example 64, (+)-(S)-4-(4-((S)-1-(4-Chlorophenyl)-2,2,2-trifluoroethylamino)phenethyl)-4,5-dihydrooxazol-2-amine] | 0.063 | 0.002 | – | –
COc1ccc(Nc2ccc(CC[C@H]3COC(N)=N3)cc2)nc1 [Example 30, {4-[2-((S)-2-Amino-4,5-dihydro-oxazol-4-yl)-ethyl]-phenyl}-(5-methoxy-pyridin-2-yl)-amine] | 0.134 | 0.0083 | – | –
NC1=N[C@@H](CCc2ccc(Nc3cc(C(F)(F)F)ncn3)cc2)CO1 [Example 17, (S)-4-(4-(6-(Trifluoromethyl)pyrimidin-4-ylamino)phenethyl)-4,5-dihydrooxazol-2-amine] | 0.0013 | 0.0012 | – | –
NC1=N[C@@H](CCc2ccc(Nc3cccc(Cl)n3)cc2)CO1 [Example 28, {4-[2-((8)-2-Amino-4,5-dihydro-oxazol-4-yl)-ethyl]-phenyl}-(6-chloro-pyridin-2-yl)-amine] | 0.001 | 0.0005 | – | –
N#Cc1ccc(Nc2ccc(CC[C@H]3COC(N)=N3)cc2)nc1 [Example 16, 6-{4-[2-((S)-2-Amino-4,5-dihydro-oxazol-4-yl)-ethyl]-phenylamino}-nicotinonitrile] | 0.0015 | 0.0004 | – | –
